The test relates to Eotaxin-3 (CCL26) release in human whole blood stimulated with IL-4. The experiment in a line: Human whole blood eotaxin-3 assay (IL-4 stimulated eotaxin-3 release). Format: cell-based. The settings on record: Homo sapiens, 48 h, human whole blood stimulated with recombinant human IL-4, 48 h; inhibition of eotaxin-3 release; given for test compounds with >80% Emax; geometric mean. In outline:
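Eotaxin-3 (CCL26) release was quantified by MSD immunoassay in supernatants of human heparinised whole blood after 48 h at 37° C with IL-4 ([…] final). Compounds, in 4-fold dilutions at 0.5% DMSO, were added 2 h before stimulation.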

In general, EC50 refers to the concentration giving half of the maximal effect.

Molecules are shown by their SMILES.

As for `CN(C)C(=O)c1ccc(C2=CCN(Cc3cc4c(-n5ccc6c(c5=O)CCN6)ccnc4n3C)CC2)c(C2CC2)c1` [Example 1m113, cyclopropyl-N-dimethyl-4-(1-((1-methyl-4-(4-oxo-1,2,3,4-tetrahydro-5H-pyrrolo[3,2-c]pyridin-5-yl)-1H-pyrrolo[2,3-b]pyridin-2-yl)methyl)-1,2,3,6-tetrahydropyridin-4-yl)benzamide], the EC50 stood at 30 nM.
To `[2H]C([2H])([2H])N(C(=O)c1cc(C)c(C2=CCN(Cc3cc4c(-n5ccc(NC)c(C)c5=O)ccnc4n3C)CC2)c(F)c1)C([2H])([2H])[2H]` [Example 1m114, 3-fluoro-5-methyl-N,N-bis(methyl-d3)-4-(1-((1-methyl-4-(3-methyl-4-(methylamino)-2-oxopyridin-1 (2H)-yl)-1H-pyrrolo[2,3-b]pyridin-2-yl)methyl)-1,2,3,6-tetrahydropyridin-4-yl)-benzamide] belongs 185 nM; to `[2H]C([2H])([2H])N(C(=O)c1cc(F)c(C2=CCN(Cc3cc4c(-n5ccc6c(c5=O)CCN6)ccnc4n3C)CC2)c(F)c1)C([2H])([2H])[2H]` [Example 1m115, 3,5-difluoro-N,N-bis(methyl-d3)-4-(1-((1-methyl-4-(4-oxo-1,2,3,4-tetrahydro-5H-pyrrolo[3,2-c]pyridin-5-yl)-1H-pyrrolo[2,3-b]pyridin-2-yl)methyl)-1,2,3,6-tetrahydropyridin-4-yl)benzamide], 20.4 nM; to `CNc1ccn(-c2ccnc3c2cc(CN2CCC(c4c(F)cc(C(=O)N(C)C)cc4F)CC2)n3C)c(=O)c1F` [Example 1m116, 3,5-difluoro-4-(1-((4-(3-fluoro-4-(methylamino)-2-oxopyridin-1 (2H)-yl)-1-methyl-1H-pyrrolo[2,3-b]pyridin-2-yl)methyl)piperidin-4-yl)-N,N-dimethylbenzamide], 229 nM.
To `[2H]C([2H])([2H])N(C(=O)c1cc(F)c(C2CCN(Cc3cc4c(-n5ccc6c(c5=O)CCN6)ccnc4n3C)CC2)c(F)c1)C([2H])([2H])[2H]` [Example 1m117, 3,5-difluoro-N,N-bis(methyl-d3)-4-(1-((1-methyl-4-(4-oxo-1,2,3,4-tetrahydro-5H-pyrrolo[3,2-c]pyridin-5-yl)-1H-pyrrolo[2,3-b]pyridin-2-yl)methyl)piperidin-4-yl)benzamide] belongs 24.8 nM.
For `CNc1nc(=O)n(-c2ccnc3c2cc(CN2CCC(c4c(F)cc(C(=O)N(C)C)cc4F)CC2)n3C)cc1F` [Example 1m118, 3,5-difluoro-4-(1-((4-(5-fluoro-4-(methylamino)-2-oxopyrimidin-1 (2H)-yl)-1-methyl-1H-pyrrolo[2,3-b]pyridin-2-yl)methyl)piperidin-4-yl)-N,N-dimethylbenzamide] the value was 55.2 nM; for `CN(C)C(=O)c1cc(F)c(C2CCN(Cc3cc4c(-n5cc(F)c(N)c(F)c5=O)ccnc4n3C)CC2)c(F)c1` [Example 1m119, 4-(1-((4-(4-amino-3,5-difluoro-2-oxopyridin-1 (2H)-yl)-1-methyl-1H-pyrrolo[2,3-b]pyridin-2-yl)methyl)piperidin-4-yl)-3,5-difluoro-N,N-dimethylbenzamide], 36.4 nM; for `C[C@@H](c1cc2c(-n3ccc4c(c3=O)CCN4)ccnc2n1C)N1CC=C(c2c(F)cc(C(=O)N(C)C)cc2F)CC1` [Example 1m122, (S)-3,5-difluoro-N,N-dimethyl-4-(1-(1-(1-methyl-4-(4-oxo-1,2,3,4-tetrahydro-5H-pyrrolo[3,2-c]pyridin-5-yl)-1H-pyrrolo[2,3-b]pyridin-2-yl)ethyl)-1,2,3,6-tetrahydropyridin-4-yl)benzamide], 11.5 nM.
In the case of `C[C@H](c1cc2c(-n3ccc4c(c3=O)CCN4)ccnc2n1C)N1CC=C(c2c(F)cc(C(=O)N(C)C)cc2F)CC1` [Example 1m123, (R)-3,5-difluoro-N,N-dimethyl-4-(1-(1-(1-methyl-4-(4-oxo-1,2,3,4-tetrahydro-5H-pyrrolo[3,2-c]pyridin-5-yl)-1H-pyrrolo[2,3-b]pyridin-2-yl)ethyl)-1,2,3,6-tetrahydropyridin-4-yl)benzamide], the EC50 amounted to 211 nM.
To `CNc1cc(=O)n(-c2ccnc3c2cc([C@H](C)N2CC=C(c4c(C)cc(C(=O)N(C)C)cc4F)CC2)n3C)cc1F` [Example 1m124, (S)-3-fluoro-4-(1-(1-(4-(5-fluoro-4-(methylamino)-2-oxopyridin-1 (2H)-yl)-1-methyl-1H-pyrrolo[2,3-b]pyridin-2-yl)ethyl)-1,2,3,6-tetrahydropyridin-4-yl)-N,N,5-trimethylbenzamide] belongs 7.6 nM.
Turning to `CNc1ccn(-c2ccnc3c2cc([C@H](C)N2CC=C(c4c(C)cc(C(=O)N(C)C)cc4F)CC2)n3C)c(=O)c1F` [Example 1m125, (S)-3-fluoro-4-(1-(1-(4-(3-fluoro-4-(methylamino)-2-oxopyridin-1 (2H)-yl)-1-methyl-1H-pyrrolo[2,3-b]pyridin-2-yl)ethyl)-1,2,3,6-tetrahydropyridin-4-yl)-N,N,5-trimethylbenzamide], the concentration for a half-maximal effect (EC50) was found to be 25.1 nM.
As for `C[C@@H](c1cc2c(-n3ccc4c(c3=O)CCN4)ccnc2n1C)N1CCC(c2c(F)cc(C(=O)N(C)C)cc2F)CC1` [Example 1m126, (S)-3,5-difluoro-N,N-dimethyl-4-(1-(1-(1-methyl-4-(4-oxo-1,2,3,4-tetrahydro-5H-pyrrolo[3,2-c]pyridin-5-yl)-1H-pyrrolo[2,3-b]pyridin-2-yl)ethyl)piperidin-4-yl)benzamide], the EC50 was determined as 12.2 nM.
To `C[C@H](c1cc2c(-n3ccc4c(c3=O)CCN4)ccnc2n1C)N1CCC(c2c(F)cc(C(=O)N(C)C)cc2F)CC1` [Example 1m127, (R)-3,5-difluoro-N,N-dimethyl-4-(1-(1-(1-methyl-4-(4-oxo-1,2,3,4-tetrahydro-5H-pyrrolo[3,2-c]pyridin-5-yl)-1H-pyrrolo[2,3-b]pyridin-2-yl)ethyl)piperidin-4-yl)benzamide] belongs 49.5 nM.
To `[2H]C([2H])([2H])N(C(=O)c1cc(C)c(C2=CCN([C@@H](C)c3cc4c(-n5ccc6c(c5=O)CCN6)ccnc4n3C)CC2)c(F)c1)C([2H])([2H])[2H]` [Example 1m128, (S)-3-fluoro-5-methyl-N,N-bis(methyl-d3)-4-(1-(1-(1-methyl-4-(4-oxo-1,2,3,4-tetrahydro-5H-pyrrolo[3,2-c]pyridin-5-yl)-1H-pyrrolo[2,3-b]pyridin-2-yl)ethyl)-1,2,3,6-tetrahydropyridin-4-yl)benzamide] belongs 3.42 nM; to `CNc1nc(=O)n(-c2ccnc3c2cc([C@H](C)N2CC=C(c4c(C)cc(C(=O)N(C)C)cc4F)CC2)n3C)cc1F` [Example 1m129, (S)-3-fluoro-4-(1-(1-(4-(5-fluoro-4-(methylamino)-2-oxopyrimidin-1 (2H)-yl)-1-methyl-1H-pyrrolo[2,3-b]pyridin-2-yl)ethyl)-1,2,3,6-tetrahydropyridin-4-yl)-N,N,5-trimethylbenzamide], 4.09 nM; to `CNc1cc(=O)n(-c2ccnc3c2cc([C@@H](C)N2CCC(c4c(C)cc(C(=O)N(C)C)cc4F)CC2)n3C)cc1F` [Example 1m130, (R)-3-fluoro-4-(1-(1-(4-(5-fluoro-4-(methylamino)-2-oxopyridin-1 (2H)-yl)-1-methyl-1H-pyrrolo[2,3-b]pyridin-2-yl)ethyl)piperidin-4-yl)-N,N,5-trimethylbenzamide], 22.5 nM.
To `CNc1cc(=O)n(-c2ccnc3c2cc([C@H](C)N2CCC(c4c(C)cc(C(=O)N(C)C)cc4F)CC2)n3C)cc1F` [Example 1m131, (S)-3-fluoro-4-(1-(1-(4-(5-fluoro-4-(methylamino)-2-oxopyridin-1 (2H)-yl)-1-methyl-1H-pyrrolo[2,3-b]pyridin-2-yl)ethyl)piperidin-4-yl)-N,N,5-trimethylbenzamide] belongs 891 nM; to `Cc1cc(C(=O)N(C)C)cc(F)c1C1=CCN([C@@H](C)c2cc3c(-n4cc(F)c(N)c(F)c4=O)ccnc3n2C)CC1` [Example 1m132, (S)-4-(1-(1-(4-(4-amino-3,5-difluoro-2-oxopyridin-1 (2H)-yl)-1-methyl-1H-pyrrolo[2,3-b]pyridin-2-yl)ethyl)-1,2,3,6-tetrahydropyridin-4-yl)-3-fluoro-N,N,5-trimethylbenzamide], 10.8 nM; to `CN(C)C(=O)c1cc(F)c(C2CCN(Cc3cc4c(-n5cc(F)c6c(c5=O)CCN6)ccnc4n3C)CC2)c(F)c1` [Example 1m133, 3,5-difluoro-4-(1-((4-(7-fluoro-4-oxo-1,2,3,4-tetrahydro-5H-pyrrolo[3,2-c]pyridin-5-yl)-1-methyl-1H-pyrrolo[2,3-b]pyridin-2-yl)methyl)piperidin-4-yl)-N,N-dimethylbenzamide], 75.2 nM.
With `CNc1c(F)cn(-c2ccnc3c2cc(CN2CCC(c4c(F)cc(C(=O)N(C)C)cc4F)CC2)n3C)c(=O)c1F` [Example 1m136, 4-(1-((4-(3,5-difluoro-4-(methylamino)-2-oxopyridin-1 (2H)-yl)-1-methyl-1H-pyrrolo[2,3-b]pyridin-2-yl)methyl)piperidin-4-yl)-3,5-difluoro-N,N-dimethylbenzamide], the EC50 is 48.1 nM.
On to `CNc1cc(=O)n(-c2ccnc3c2cc([C@H](C)N2CC=C(c4c(C)cc(C(=O)N(C)C)cc4F)CC2)n3C)cc1OC` [Example 1m137, (S)-3-fluoro-4-(1-(1-(4-(5-methoxy-4-(methylamino)-2-oxopyridin-1 (2H)-yl)-1-methyl-1H-pyrrolo[2,3-b]pyridin-2-yl)ethyl)-1,2,3,6-tetrahydropyridin-4-yl)-N,N,5-trimethylbenzamide], for which the EC50 was 589 nM.
Turning to `CNc1ccn(-c2ccnc3c2cc([C@H](C)N2CC=C(c4c(C)cc(C(=O)N(C)C)cc4F)CC2)n3C)c(=O)c1OC` [Example 1m138, (S)-3-fluoro-4-(1-(1-(4-(3-methoxy-4-(methylamino)-2-oxopyridin-1 (2H)-yl)-1-methyl-1H-pyrrolo[2,3-b]pyridin-2-yl)ethyl)-1,2,3,6-tetrahydropyridin-4-yl)-N,N,5-trimethylbenzamide], the 50% effective concentration (EC50) was 229 nM.

Values taken from US20260001893A1, “SMALL MOLECULE MODULATORS OF STAT6” (Gilead Sciences, Inc., priority 2024, published 2026).
